# Laboratory results published in US20250213474A1, “COMPOSITIONS AND METHODS FOR METAL CONTAINING FORMULATIONS CAPABLE OF MODULATING IMMUNE RESPONSE” (The Regents of the University of Michigan, priority 2021, published 2025).
# Assays:
# NOOC1 tumor cells = assay: NOOC1 ICB-resistant squamous cell carcinoma model; format: in vivo, C57BL/6 mice; details: CDA dose 5 μg I.T. or 20 μg I.V., days 9, 12, 16, 20
# Protocol: NOOC1 was maintained in the IMDM media (Gibco cat #12440053). To make 1L of growth media for NOOC1, 626 ml IMDM base was mixed with 313 ml F-12 nutrient mix (Gibco cat #11765054), 50 ml FBS (Hyclone cat #SH3039603), 10 ml Pen Strep (Thermo Fisher cat #15-140-122), 1.25 ml of 4 mg/ml insulin (Invitrogen cat #12585014), 200 μl of 200 μg/ml hydrocortisone (Sigma-Aldrich cat #H0888-1G), and 50 μl of 100 μg/ml EGF (EMD Millipore cat #01-107). For in vivo implantation, Matrigel (Thermo Fisher cat #CB-40230) was thawed overnight at 4° C. On the day of injection, NOOC1 was washed once with PBS and mixed with Matrigel to reach a density of 2×10^7 cells/ml. Each mouse was inoculated subcutaneously with 2×10^6 cells (100 μl). Tumor size and survival were monitored every 2 or 3 days as indicated above.
# To further evaluate the potency of CMP, we performed head-to-head comparison studies between CMPCDA and other STING-activating formulations. C57BL/6 mice were inoculated at S.C. flank with 3×10^5 B16F10 tumors cells, and we administered three doses of CMPCDA on three-day intervals via either I.T. route when the average tumor volume reached 153±17 mm^3 (FIGS. 23A-23E) or via I.V. route when the average tumor volume reached 63±7 mm^3. (FIGS. 23F-23J)). […]
# CT26 colon cancer cells [1] = assay: CT26 colon tumor model, metal ion-CDA combinations and coordination formulations; format: in vivo, Balb/c mice; set-up: concentration or dose not given beside the values; details: three doses intratumoral on day 9, 12, 15
# Protocol: FIGS. 6A-6D: Enhanced STING activation and cancer therapy efficacy by Co^2+ and Mn^2+ in Vivo. (FIG. 6A) individual tumor growth curve after three doses of intratumor injection of the indicated formulation at day 9, 12, 15 after tumor inoculation. (FIG. 6B) Serum IFN-beta concentration 8 h after the 1st dose of the indicated formulation. (FIGS. 6C-6D) individual tumor growth (FIG. 6C) and survival (FIG. 6D) of the tumor bearing mice after treated with the indicated formulations.
# FIGS. 7A-7E: Enhanced STING activation by Co^2+ and Mn^2+ led to improved antigen specific immune response after In vivo. (FIG. 7A) the percentage of AH1-specific CD8+ T cells among PBMC on day 16. (FIG. 7B) IFN-γ secreting cells counts per 5E4 PBMCs after stimulation with AH1 peptides at day 22. […]
# All animals were cared for following federal, state, and local guidelines. […] Tumor size and survival were monitored every 2 or 3 days. Tumor size was calculated based on equation: volume=length×width^2×0.5. […] At day 17, the percentages of tumor antigen-specific CD8α+ T cells among PBMC were analyzed using the tetramer staining assay as described previously with peptide-MHC tetramer ([…] AH1) (the NIH Tetramer Core Facility, Atlanta, GA). […]
# CT26 colon cancer cells [2] = assay: CT26 tumor model, I.V. administration of CMP; format: in vivo; details: free CDA 100 μg; CMPCDA 20 μg
# Protocol: (FIG. 22A) CT26 tumor-bearing BALB/c mice were treated with CDA+ Mn^2+ or CMPCDA, I.V. on days 9, 12, and 15. […] (FIGS. 22D-22F) Tumor growth (FIGS. 22D-22E) and animal survival (FIG. 22F) were Monitored over time. (FIG. 22G) Survivors re-challenged with CT26 tumor cells on day 145 were monitored for tumor Growth and survival.
# For CT26 murine tumor model, female BALB/c mice of age 6-8 weeks (Jackson Laboratories) were inoculated with 1.5×10^5 CT26 colon cancer cells subcutaneously on the right back flank. […] Tumor-bearing mice were randomly assigned to different treatment groups. Indicated drugs or formulations were administrated via indicated route at indicated time points. Tumor size and survival were monitored every 2-4 days. Tumor size was calculated based on equation: volume=length×width^2×0.5. Animals were euthanized when the tumor reached 1.5 cm in diameter or when animals became moribund with severe weight loss or un-healing ulceration.
# To address this issue, we evaluated the therapeutic effect of CMP after I.V. administration. CT26 tumor-bearing BABL/c mice were treated I.V. on days 9, 12, and 15 with 20 μg CDA and 10 μg Mn^2+ either in CMPCDA or soluble form (FIG. 22A).
compound,measurement,setting,value
"Nc1ncnc2c1ncn2[C@@H]1O[C@@H]2COP(=O)(O)O[C@H]3[C@@H](O)[C@H](n4cnc5c(N)ncnc54)O[C@@H]3COP(=O)(O)O[C@H]2[C@H]1O [free CDA, cyclic-di-AMP]",anti-tumor efficacy in NOOC1 model,NOOC1 tumor cells,refractory
same,survival rate,CT26 colon cancer cells [1],20%
same,control of tumor growth by I.V. therapy,CT26 colon cancer cells [2],could not control tumor growth
